Data on four compounds can be found in patent US20220390458A1, “FLUORESCENT PROBE AND APPLICATIONS THEREOF” (CENTRE NATIONAL DE LA RECHERCHE SCIENTIFIQUE (CNRS), priority 2019, published 2022).

The pKa is the negative logarithm of the acid dissociation constant.

Data set [1] is described as follows: Probe fluorescence in organic solvents of increasing polarity. It counts as physicochemical. The note with it: 25° C., 2.6 μM probes. The method, then: Fluorescence measurements were performed with a Hitachi F4500 fluorometer. Excitation and emission slits were fixed at 5 nm and spectra were recorded at 25° C. using a 1 cm path length thermostated quartz micro-cuvette. 0.26 mM solutions of the probes were prepared in a dichloromethane: methanol mixture (3:1 volume ratio). Measurements were performed with […] probes diluted in the different solvents (see Table 1). The initial solvent of the stock solution thus represents 1% of the final volume.

Data set [2] concerns influenza virus membranes. As to the kind of experiment: Labeling of viral membranes and GP calculation. The note with it: 21° C.; excitation 390 nm.
Data set [3] can be described thus: DIOLL probe fluorescence-based liposome quantification. The note with it: POPC liposomes; 21° C.; excitation 390 nm. How it is done: A POPC solution of known concentration (100 μg.ml^−1) was used as standard. Increasing volumes of the standard solution were diluted with buffer in a 96 well plate (Nunc). The final volume per well was 200 μl and lipid concentrations between 0 and 80 μg.ml^−1 were used. Samples were prepared in parallel to a final volume of 200 μl per well.
A constant volume of DIOLL solution in ethanol (5 μl) was added in each well to obtain a final DIOLL concentration of 2 μM. The volume of ethanol added represented 2.5% of the final volume and had no effect on liposome integrity. The plate was incubated at room temperature for 10 min. Fluorescence emission spectra were recorded between 420 nm and 600 nm for an excitation wavelength of 390 nm with a TECAN InfiniteM200 plate reader. Spectra were recorded at 21° C.
The surface under the spectrum was calculated for each condition using an Excel complementary function, IntegralP (www.fordom.free.fr) which allows one to calculate the integral of a function when discrete data sets are available. Maximum fluorescence intensities or surfaces under the curve were plotted as a function of the lipid concentration to obtain the standard curve. […]
To conclude upon the repeatability of the method, the coefficient of variation (CV) was calculated as the percentage of the standard deviation on the mean of 5 independent measurements. […]

Data set [4] in a line: Probe fluorescence in DMPC liposomes as a function of temperature (5 to 65° C.). The note with it: for maximum emission wavelength, liquid crystalline phase: above phase transition temperature; for maximum emission wavelength, liquid crystalline phase / maximum emission wavelength, gel phase: excitation 385 nm; for maximum emission wavelength, gel phase: below phase transition temperature. It counts as physicochemical. How it is done:
Liposomes were prepared in PBS buffer using a classical freeze/though protocol. In brief, lipids dissolved in chloroform were dried under vacuum. The lipid film formed was rehydrated with the PBS solution and agitated until the complete suspension of the lipid film. The vesicle solution was then submitted to 6 freeze/thaw (5 min in liquid nitrogen/10 min in 37° C. water bath) cycles and then extruded 19 times sequentially trough 400 nm and 200 nm polycarbonate membranes (Avanti Polar Lipids Liposome Extruder). The 200 nm liposome suspension was stored at 4° C.
Fluorescence data was obtained using a Hitachi F4500 fluorometer. Emission spectra were recorded between 420 and 600 nm with an excitation wavelength fixed at 385 nm and 5 nm excitation and emission slits. Ethanol solutions of fluorescent probes were prepared and added to liposomes at a 1:400 (probe: phospholipid) molar ratio. Liposomes were used at a 40 μg.mL^−1 final concentration. Measurements were done at 21° C. for all liposome compositions indicated in Table 2, except for DMPC where a range of temperature from 5 to 65° C. was also applied.
The spectral shift described above was quantified by calculation of the Generalized Polarization (GP) parameter. This parameter provides a quantitative index of membrane fluidity and is calculated as the difference between fluorescence emission intensity at a 440 nm (lipids with gel properties) and the intensity at 490 nm (wavelength evidenced in lipids with liquid crystal properties), divided by the sum of these two intensities. The GP parameter was thus calculated from fluorescence emission intensities according to the following formula: […]
where Igel and Ilc are, respectively, intensities of fluorescence at wavelengths characteristic of probe emission, respectively in gel and liquid crystal lipid phases.

Data set [5] is described as follows: Determination of nanoemulsion (NE) fluidity with DIOLL probe. It counts as physicochemical.
Data set [6] in a line: DIOLL fluorescence in DPPC liposomes (plate reader, quantification method). It counts as physicochemical. The note with it: 21° C., excitation 390 nm. How it is done:
(§1) Liposomes were prepared using a classical freeze/thaw protocol. Briefly, the appropriate lipid mixture solubilized in chloroform was dried under vacuum, then solubilized with 1 ml buffer under strong agitation. Assays were done either in HEPES 20 mM pH 7.4 buffer 100 mM NaCl or in PBS. The liposome emulsion obtained was submitted to 6 freeze/thaw cycles (5 min in liquid nitrogen/10 min in a water bath at 37° C., 1 minute strong agitation) to decrease the number of bilayers and obtain unilamellar vesicles. To obtain homogenous vesicles, the liposome solution was extruded successively through a 400 nm and 100 nm polycarbonate membrane using an extruder (Avanti Polar Lipids). Liposomes were routinely prepared at lipid concentrations between 1 and 10 mg.ml^−1 and subsequently diluted at the desired concentration. A constant volume of DIOLL solution in ethanol (5 μl) was added in each well to obtain a final DIOLL concentration of 2 μM. The volume of ethanol added represented 2.5% of the final volume and had no effect on liposome integrity. The plate was incubated at room temperature for 10 min. Fluorescence emission spectra were recorded between 420 nm and 600 nm for an excitation wavelength of 390 nm with a TECAN InfiniteM200 plate reader. Spectra were recorded at 21° C.

Data set [7] can be described thus: Probe fluorescence intensity in POPC liposomes. It counts as physicochemical. The note with it: 25° C., final concentration 0.2 μM.
Data set [8] can be described thus: DIOLL fluorescence in DMPC liposomes (plate reader, quantification method). It counts as physicochemical. The note with it: 21° C., excitation 390 nm. How it is done:
as §1

The conditions of data set [9]: carboxylic group; cited from earlier work.
The conditions of data set [10]: literature; cited from earlier work.
The conditions of data set [11]: cited from earlier work.

For `CCCCCCCCCCCC(=O)c1ccc2cc(N(C)CC(O)CO)ccc2c1` (stereo not shown) [DIOLL, 1-(6-((2,3-dihydroxypropyl)(methyl)amino)naphthalen-2-yl)dodecan-1-one], the Maximum fluorescence intensity in [1] (Chloroform) is 5041 A. U; in [1] (DMSO), 9384 A. U; in data set [1] (Ethanol) it was 7647 A. U; in data set [1] (Toluene), 5041 A. U. Moreover, the λ emission maximum in data set [1] (Chloroform) is reported as 424 nm; in [1] (Chloroform, listed as DIOLL probe), 441 nm; in [1] (DMSO), 441 nm; in [1] (DMSO, listed as DIOLL probe) it was 460 nm; in [1] (Ethanol), 486 nm; in [1] (Toluene) it was 424 nm. In data set [1] (Toluene, listed as DIOLL probe), this compound had a λ emission maximum of 425 nm. For the same compound, in data set [2], the “maximum fluorescence intensity wavelength” value is 440 nm. The “fluorescence intensity emission maximum” value in data set [3] was found to be 490 nm. Further, the “gel over liquid crystalline ratio of fluorescence intensity” value in [4] was 0.8. Further, the “inflexion point of first derivative of GP vs temperature” value in data set [4] was 23 °C. The “maximum emission wavelength, liquid crystalline phase” value in data set [4] worked out at 490 nm. For the same compound, in [4], the “maximum emission wavelength, gel phase” value was 440 nm. Further, the “fluorescence emission peak dissolved in MCT” value in data set [5] (2.6 μM in MCT, single peak) is given as 440 nm. In addition, the “fluorescence emission dissolved in water” value in data set [5] (2.6 μM in water) is on record as “no fluorescence emission was detected”. Moreover, the maximum fluorescence emission in data set [6] and in data set [8] was 440 nm each time. In data set [7], the “fluorescence intensity, fold higher than that of Laurdan and C-Laurdan” value is 7 fold.

With `CCCCCCCCCCCC(=O)c1ccc2cc(N(C)CC(=O)O)ccc2c1` [C-Laurdan, 6-Dodecanoyl-2-[N-methyl-N-(carboxymethyl)amino] naphthalene], the Maximum fluorescence intensity stood at 3115 A. U in data set [1] (Chloroform), 2428 A. U in [1] (DMSO), 1491 A. U in data set [1] (Ethanol) and 359 A. U in data set [1] (Toluene). In addition, the λ emission maximum is given as 432 nm in data set [1] (Chloroform), 450 nm in data set [1] (DMSO), 485 nm in data set [1] (Ethanol) and 416 nm in data set [1] (Toluene). For the same compound, the pKa in [9] is 6.6.

For `CCCCCCCCCCCC(=O)c1ccc2cc(N(C)C)ccc2c1` [Laurdan, 6-dodecanoyl-2-dimethylaminonaphthalene], in data set [1] (Chloroform), the Maximum fluorescence intensity is reported as 4441 A. U and the λ emission maximum is recorded as 440 nm. In addition, in data set [1] (DMSO), the Maximum fluorescence intensity is 5533 A. U and the λ emission maximum came out at 460 nm. Besides, in data set [1] (Ethanol), the Maximum fluorescence intensity amounted to 4221 A. U and the λ emission maximum is given as 485 nm. Further, in data set [1] (Toluene), the Maximum fluorescence intensity is reported as 3814 A. U and the λ emission maximum was 423 nm. In data set [10], the “emission maximum, gel phase membranes” value is reported as 440 nm and the “emission maximum, liquid crystalline phase membranes” value is reported as 490 nm. Also, the “solubility in aqueous buffers” value in data set [11] is recorded as “low solubility in aqueous buffers”. Moreover, in [4], the “gel over liquid crystalline ratio of fluorescence intensity” value stood at 0.6; the “inflexion point of first derivative of GP vs temperature” value came to 23 °C; the “maximum emission wavelength, liquid crystalline phase” value was “around 490 nm”; the “maximum emission wavelength, gel phase” value came to 440 nm. Also, the “fluorescence emission peak when incubated with NE solution” value in [5] (single peak) stood at 440 nm.

On to `CCCCN(CCCC)c1ccc2cc(/C=C/c3cc[n+](CC(O)C[N+](C)(C)CCO)cc3)ccc2c1.[Br-].[Br-]` (stereo not shown) [Di-4-ANEPPDHQ], for which, in data set [10], the “emission maximum, gel phase membranes” value is on record as 560 nm and the “emission maximum, liquid crystalline phase membranes” value is 610 nm.
